# Experimental data from PubChem BioAssay AID256 (DTP/NCI, 2004).
# Several values for one entry are separate records, joined by “and”; a condition that tells them apart may be missing. Equal values may be shown once. Inconclusive results and toxic doses are left out.
# Test system: CD2F1 mice, L1210 leukemia ip, survival T/C
# Test: NCI In Vivo Anticancer Drug Screen. Data for tumor model L1210 Leukemia (intraperitoneal) in CD2F1 (CDF1) mice
# Conditions: higher = longer survival
# Procedure, shortened: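 Each value reflects a quotient of treated over vehicle control outcomes in mice with a transplanted tumor.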
# [1] = endpoint: mean survival time, dose: 100.0 mg/kg/injection, schedule: Q01DX009 (ip), vehicle: Klucel (hydroxypropylcellulose) (HPC)
# [2] = endpoint: mean survival time, dose: 100.0 mg/kg/injection, schedule: Q04DX002 (ip), vehicle: saline with Tween-80
# [3] = endpoint: mean survival time, dose: 200.0 mg/kg/injection, schedule: Q04DX002 (ip), vehicle: saline with Tween-80
# [4] = endpoint: mean survival time, dose: 400.0 mg/kg/injection, schedule: Q04DX002 (ip), vehicle: saline with Tween-80
# [5] = endpoint: mean survival time, dose: 100.0 mg/kg/injection, schedule: Q04DX003 (ip), vehicle: saline with Tween-80
# [6] = endpoint: mean survival time, dose: 200.0 mg/kg/injection, schedule: Q04DX003 (ip), vehicle: saline with Tween-80
# [7] = endpoint: mean survival time, dose: 400.0 mg/kg/injection, schedule: Q04DX003 (ip), vehicle: saline with Tween-80
# [8] = endpoint: mean survival time, dose: 50.0 mg/kg/injection, schedule: Q01DX009 (ip), vehicle: saline with Tween-80
# [9] = endpoint: mean survival time, dose: 100.0 mg/kg/injection, schedule: Q01DX009 (ip), vehicle: saline with Tween-80
# [10] = endpoint: mean survival time, dose: 200.0 mg/kg/injection, schedule: Q01DX009 (ip), vehicle: saline with Tween-80
# [11] = endpoint: mean survival time, dose: 100.0 mg/kg/injection, schedule: Q04DX003 (ip), vehicle: saline
# [12] = endpoint: mean survival time, dose: 200.0 mg/kg/injection, schedule: Q04DX003 (ip), vehicle: saline
# [13] = endpoint: mean survival time, dose: 400.0 mg/kg/injection, schedule: Q01DX009 (ip), vehicle: saline with Tween-80
# [14] = endpoint: mean survival time, dose: 400.0 mg/kg/injection, schedule: Q04DX003 (ip), vehicle: saline
# [15] = endpoint: mean survival time, dose: 75.0 mg/kg/injection, schedule: Q01DX001 (ip), vehicle: saline
# [16] = endpoint: mean survival time, dose: 150.0 mg/kg/injection, schedule: Q01DX001 (ip), vehicle: saline
# [17] = endpoint: mean survival time, dose: 300.0 mg/kg/injection, schedule: Q01DX001 (ip), vehicle: saline
# [18] = endpoint: mean survival time, dose: 100.0 mg/kg/injection, schedule: Q01DX009 (ip), vehicle: saline
# [19] = endpoint: mean survival time, dose: 100.0 mg/kg/injection, schedule: Q01DX001 (ip), vehicle: saline with Tween-80
# [20] = endpoint: mean survival time, dose: 200.0 mg/kg/injection, schedule: Q01DX001 (ip), vehicle: saline with Tween-80
# [21] = endpoint: mean survival time, dose: 400.0 mg/kg/injection, schedule: Q01DX001 (ip), vehicle: saline with Tween-80
smiles,measurement,setting,value
CN(C)N=Nc1ccc(/C=C/C(=O)O)cc1,T/C,"endpoint: mean survival time, dose: 12.5 mg/kg/injection, schedule: Q01DX009 (ip), vehicle: Klucel (hydroxypropylcellulose) (HPC)",105 % of control
same,T/C,"endpoint: mean survival time, dose: 25.0 mg/kg/injection, schedule: Q01DX009 (ip), vehicle: Klucel (hydroxypropylcellulose) (HPC)",111 % of control
same,T/C,[1],150 % of control
CCCCCCCCC(Sc1nn(C2OC(COC(=O)c3ccccc3)C(OC(=O)c3ccccc3)C2OC(=O)c2ccccc2)c(=O)[nH]c1=O)C(=O)OCC (stereo unspecified),T/C,"endpoint: mean survival time, dose: 12.5 mg/kg/injection, schedule: Q01DX005 (ip), vehicle: distilled water + Tween-80",101 % of control
same,T/C,"endpoint: mean survival time, dose: 25.0 mg/kg/injection, schedule: Q01DX005 (ip), vehicle: distilled water + Tween-80",100 % of control
same,T/C,"endpoint: mean survival time, dose: 50.0 mg/kg/injection, schedule: Q01DX005 (ip), vehicle: distilled water + Tween-80",100 % of control
same,T/C,"endpoint: mean survival time, dose: 100.0 mg/kg/injection, schedule: Q01DX005 (ip), vehicle: distilled water + Tween-80",97 % of control
same,T/C,"endpoint: mean survival time, dose: 200.0 mg/kg/injection, schedule: Q01DX005 (ip), vehicle: distilled water + Tween-80",97 % of control
CC(C)NC(=O)Nc1ccccc1Cl,T/C,[2],93 % of control
same,T/C,[3],97 % of control
same,T/C,[4],104 % of control
O=C(O)COc1ccc(-c2ccccc2)cc1,T/C,[5],104 % of control
same,T/C,[6],90 % of control
same,T/C,[7],101 % of control
O=c1ccnc2cc[nH]n12,T/C,"endpoint: median survival time, dose: 50.0 mg/kg/injection, schedule: Q01DX005 (ip), vehicle: saline",104 % of control
same,T/C,"endpoint: median survival time, dose: 100.0 mg/kg/injection, schedule: Q01DX005 (ip), vehicle: saline",101 % of control
same,T/C,"endpoint: median survival time, dose: 200.0 mg/kg/injection, schedule: Q01DX005 (ip), vehicle: saline",101 % of control
CCNc1nnc(N=Nc2ccccc2)s1,T/C,"endpoint: mean survival time, dose: 25.0 mg/kg/injection, schedule: Q04DX002 (ip), vehicle: saline with Tween-80",91 % of control
same,T/C,"endpoint: mean survival time, dose: 50.0 mg/kg/injection, schedule: Q04DX002 (ip), vehicle: saline with Tween-80",95 % of control
same,T/C,[2],95 % of control
same,T/C,[3],88 % of control
CC#CS(=O)(=O)C(C)(C)C,T/C,[8],100 % of control
same,T/C,[9],100 % of control
same,T/C,[5],93 % of control
same,T/C,[10],97 % of control
same,T/C,[6],90 % of control
CN(C)Cc1[c-]c(CN(C)C)ccc1.[Cl][Pt],T/C,"endpoint: median survival time, dose: 1.56 mg/kg/injection, schedule: Q04DX003 (ip), vehicle: saline",101 % of control
same,T/C,"endpoint: median survival time, dose: 3.12 mg/kg/injection, schedule: Q04DX003 (ip), vehicle: saline",91 % of control and 107 % of control
same,T/C,"endpoint: median survival time, dose: 6.25 mg/kg/injection, schedule: Q04DX003 (ip), vehicle: saline",111 % of control
same,T/C,"endpoint: median survival time, dose: 12.5 mg/kg/injection, schedule: Q04DX003 (ip), vehicle: saline",96 % of control and 107 % of control
same,T/C,"endpoint: median survival time, dose: 25.0 mg/kg/injection, schedule: Q04DX003 (ip), vehicle: saline",100 % of control and 107 % of control
same,T/C,"endpoint: median survival time, dose: 50.0 mg/kg/injection, schedule: Q04DX003 (ip), vehicle: saline",100 % of control and 101 % of control
same,T/C,"endpoint: median survival time, dose: 100.0 mg/kg/injection, schedule: Q04DX003 (ip), vehicle: saline",98 % of control
CCC1(CC)CO1,T/C,[9],104 % of control
same,T/C,[11],96 % of control
same,T/C,[10],93 % of control
same,T/C,[12],94 % of control
same,T/C,[13],97 % of control
same,T/C,[14],98 % of control
Cc1cc(=O)c(C#N)c(-c2ccccc2)[nH]1,T/C,[2],96 % of control
same,T/C,[3],100 % of control
same,T/C,[4],87 % of control
COc1ccc2nc3cc(Cl)ccc3c(Nc3ccc(C(O)CCN(C)C)cc3)c2c1 (stereo unspecified),T/C,[15],92 % of control
same,T/C,[16],92 % of control
same,T/C,[17],90 % of control
CC(=O)C12CC3CC1C2C3,T/C,[15],101 % of control
same,T/C,[16],98 % of control
same,T/C,[17],93 % of control
Cc1ccc2c(c1)CN(C13CC4CC(CC(C4)C1)C3)CO2,T/C,[9],96 % of control
same,T/C,[10],96 % of control
same,T/C,[13],97 % of control
Cc1ccc([N+](=O)[O-])cc1NC(=O)Oc1ccc(Cl)cc1,T/C,[9],98 % of control
same,T/C,[5],92 % of control
same,T/C,[10],98 % of control
same,T/C,[6],95 % of control
same,T/C,[13],91 % of control
same,T/C,[7],88 % of control
C[Si](OCc1ccc(-c2ccccc2)cc1)c1ccccc1,T/C,[18],99 % of control
same,T/C,[11],96 % of control
same,T/C,"endpoint: mean survival time, dose: 200.0 mg/kg/injection, schedule: Q01DX009 (ip), vehicle: saline",100 % of control
same,T/C,[12],93 % of control
same,T/C,"endpoint: mean survival time, dose: 400.0 mg/kg/injection, schedule: Q01DX009 (ip), vehicle: saline",94 % of control
same,T/C,[14],98 % of control
O=C(OC(c1ccccc1)(C(F)(F)F)C(F)(F)F)c1ccccc1Sc1ccccc1,T/C,[5],98 % of control
same,T/C,[6],93 % of control
same,T/C,[7],93 % of control
CCc1c(-c2ccccc2)c(CN2CCCCC2)c2ccccn12,T/C,[15],103 % of control
same,T/C,[16],103 % of control
same,T/C,[17],113 % of control
O=C(C[P+](c1ccccc1)(c1ccccc1)c1ccccc1)c1ccccc1,T/C,"endpoint: mean survival time, dose: 25.0 mg/kg/injection, schedule: Q01DX001 (ip), vehicle: Klucel (hydroxypropylcellulose) (HPC)",107 % of control
same,T/C,"endpoint: mean survival time, dose: 50.0 mg/kg/injection, schedule: Q01DX001 (ip), vehicle: Klucel (hydroxypropylcellulose) (HPC)",107 % of control
same,T/C,"endpoint: mean survival time, dose: 100.0 mg/kg/injection, schedule: Q01DX001 (ip), vehicle: Klucel (hydroxypropylcellulose) (HPC)",96 % of control
same,T/C,[9],103 % of control
same,T/C,[10],97 % of control
same,T/C,[13],103 % of control
C1CCCC(NC2=NCCO2)CC1,T/C,"endpoint: mean survival time, dose: 6.25 mg/kg/injection, schedule: Q04DX003 (ip), vehicle: saline with Tween-80",98 % of control
same,T/C,"endpoint: mean survival time, dose: 12.5 mg/kg/injection, schedule: Q04DX003 (ip), vehicle: saline with Tween-80",97 % of control
same,T/C,"endpoint: mean survival time, dose: 25.0 mg/kg/injection, schedule: Q04DX003 (ip), vehicle: saline with Tween-80",98 % of control
CC(C)(C)/C(=N\Nc1ccc([N+](=O)[O-])cc1[N+](=O)[O-])c1ccccc1,T/C,"endpoint: mean survival time, dose: 25.0 mg/kg/injection, schedule: Q01DX001 (ip), vehicle: saline with Tween-80",97 % of control
same,T/C,"endpoint: mean survival time, dose: 50.0 mg/kg/injection, schedule: Q01DX001 (ip), vehicle: saline with Tween-80",95 % of control
same,T/C,[19],97 % of control
OC1(C#CCC2(O)CCCCC2)CCCCC1,T/C,[19],91 % of control
same,T/C,[20],91 % of control
same,T/C,[21],93 % of control
O=C(O)CCNc1ccc2c(c1)B(O)OC2,T/C,[5],98 % of control
same,T/C,[6],101 % of control
same,T/C,[7],98 % of control
COc1cccc(N2CCN(CC(O)COc3ccc(N)cc3)CC2)c1 (stereo unspecified),T/C,"endpoint: mean survival time, dose: 6.25 mg/kg/injection, schedule: Q04DX002 (ip), vehicle: other",98 % of control
same,T/C,"endpoint: mean survival time, dose: 12.5 mg/kg/injection, schedule: Q04DX002 (ip), vehicle: other",95 % of control
same,T/C,"endpoint: mean survival time, dose: 25.0 mg/kg/injection, schedule: Q04DX002 (ip), vehicle: other",107 % of control
O=[N+]([O-])c1ccc2[nH]c3c(c2c1)CSCC3,T/C,[1],121 % of control
same,T/C,"endpoint: mean survival time, dose: 200.0 mg/kg/injection, schedule: Q01DX009 (ip), vehicle: Klucel (hydroxypropylcellulose) (HPC)",97 % of control
same,T/C,"endpoint: mean survival time, dose: 400.0 mg/kg/injection, schedule: Q01DX009 (ip), vehicle: Klucel (hydroxypropylcellulose) (HPC)",92 % of control
C/C=C1/C(=O)Oc2ccccc21,T/C,[8],101 % of control
same,T/C,[9],101 % of control
same,T/C,[10],106 % of control
OCC(O)C(O)C(O)c1csc(=S)[nH]1 (stereo unspecified),T/C,[19],97 % of control
same,T/C,[20],103 % of control
same,T/C,[21],100 % of control
CC1(C)C(N2CCOCC2)C(c2ccccc2)S1(=O)=O (stereo unspecified),T/C,[19],101 % of control
same,T/C,[20],105 % of control
same,T/C,[21],105 % of control
O=C(N1CCOCC1)C1(c2ccccc2)CCNCC1,T/C,"endpoint: mean survival time, dose: 50.0 mg/kg/injection, schedule: Q01DX009 (ip), vehicle: saline",93 % of control
same,T/C,[18],104 % of control
CC1CC(C)(C)N=C(C2CCCC2)O1 (stereo unspecified),T/C,[19],96 % of control
same,T/C,[20],96 % of control
same,T/C,[21],100 % of control
CCOC(=O)/C=C(\C)CO,T/C,[2],88 % of control
same,T/C,[3],103 % of control
same,T/C,[4],103 % of control
NS(=O)(=O)OCCCCCCCOS(N)(=O)=O,T/C,"endpoint: median survival time, dose: 12.5 mg/kg/injection, schedule: Q01DX009 (ip), vehicle: saline with Tween-80",114 % of control and 116 % of control and 110 % of control
